The values below come from US20250282764A1, “IMIDAZOLE HETEROCYCLE BASED COMPOUNDS AND METHODS OF TREATING CANCER” (King Abdulaziz University, priority 2024, published 2025).

One data set relates to DLD1. As to the kind of experiment: CellTiter-Blue cell viability assay, DLD1. Particulars: 48 h, 50% cell viability vs untreated, mean of triplicates. In kind it is cell-based, human. On the procedure: (§1) Cell culture of colorectal carcinoma cell lines was performed as follows. DLD-1, HCT116, and HT-29 cells were purchased from CLS Cell Line Service GmbH (Eppelheim, Germany) and cultured in Dulbecco's Modified Eagle Medium (DMEM) high glucose, GlutaMAX™ Supplement, pyruvate (Thermo Fisher Scientific, Paisley, UK) supplemented with 10% fetal bovine serum (FBS; Thermo Fisher Scientific), 200 U/mL penicillin, and 200 μg/ml streptomycin (Thermo Fisher Scientific), at 37° C. with 5% CO2 in a humidified incubator.
(§2) The CellTiter®-Blue Cell Viability assay was acquired from Promega Corporation (Madison, WI, USA). Cell viability assay was performed as follows: DLD-1 (4×10^3/well), HCT116 (4×10^3/well), and HT-29 (7×10^3/well) were incubated with a concentration gradient of compound (Id) ranging from 0.01 to 20 μM, in 96-well plates for 48 h at 37° C. Subsequently, 20 μl CellTiter®-Blue Cell Viability reagent was added to each well and incubated for an additional 2 h for the development of fluorescence. The fluorescence emission was measured at 590 nm using a SpectraMax® i3× Multi-Mode microplate reader (Molecular Devices, LLC, San Jose, CA, USA) and plotted against drug concentrations to determine the mean inhibitory concentration of compound (Id) producing 50% decrease in cell viability (IC50). Experiments were performed in triplicates.
A general note: Resazurin is reduced to fluorescent resorufin, in cell work by metabolically active cells.

In a further data set the test system is HT29. In words: CellTiter-Blue cell viability assay, HT29. The settings on record: 50% cell viability vs untreated, mean of triplicates. In kind it is cell-based, human. On the procedure: as §1, §2
Another data set has as its system Kasumi-1. In words: CellTiter-Blue cell viability assay, Kasumi-1. Format: cell-based, human. Particulars: 48 h, mean of triplicates. On the procedure: Cell culture of leukemia cell lines model was performed as follows. HL60, K562, and NB4 cell lines were purchased from CLS Cell Line Service GmbH (Eppelheim, Germany). MV4-11 cell line was purchased from American Type Culture Collection (ATCC; Virginia, USA). KG1α also referred to as KG1a was a gift from Prof. Ghulam Mufti (King College London, UK). Kasumi-1 cell line was purchased from Nawah Scientific (Cairo, Egypt). All cell lines were cultured in Roswell Park Memorial Institute-1640 (RPMI-1640) culture medium supplemented with 10% fetal bovine serum (FBS) (Thermo Fisher Scientific) and 0.1% ciprofloxacin (10 μg/ml; Cipla Limited; Mumbai, India). Cells were maintained in a humidified incubator at 37° C. with 5% CO2.
Cell viability was determined using the CellTiter-Blue® Cell Viability Assay kit (Promega, Madison, WI, USA). Approximately […] were plated in 96 well plate in the presence of increasing drug concentration in triplicate and incubated for 48 h at 37° C. in a humidified incubator. After the incubation period, 20 μL of the cell titer blue reagent was added to each well and the plate was incubated for additional 2 h for the development of florescence. Florescence was measured at 540Ex/590Em on SpectraMax i3 Multi-Mode Microplate Reader (Molecular Devices, LLC; San Jose, CA, USA). […]

The nature of data set [1]: Maximum kinetic aqueous solubility. In kind it is physicochemical. The settings on record: 2% DMSO/PBS, pH 7.4, read-out: Max. aq. Sol. On the procedure:
Solubility assays were performed using Millipore MultiScreen® HTS-PFC Filter Plates designed for solubility assays (EMD Millipore, Billerica, MA). Assays were run in triplicate. The 96-well plates consist of two chambers separated by a filter. Liquid handling was performed using JANUS® Verispan and MTD workstations (Perkin Elmer, Waltham, MA). 4 μL of compound (Id) solution (10 mM in DMSO) was added to 196 μL of phosphate buffer (45 mM potassium phosphate, 45 mM sodium acetate, 45 mM ethanolamine, pH=7.4) in the top chamber to give a final DMSO concentration of 2% and a theoretical drug concentration of 200 μM. Plates were gently shaken for 90 min and then subjected to vacuum. Insoluble drug was captured on the filter. 160 μL of the filtrate was transferred to 96-well Griener UV Star® analysis plates (Sigma-Aldrich, St. Louis, MO) containing 40 μL of acetonitrile. The test compound concentration in the filtrates was measured by UV absorbance on a SpectraMax® Plus microplate reader (Molecular Devices, Sunnyvale, CA) using Softmax Pro software v.5.4.5. Absorbances at 5 wavelengths (280, 300, 320, 340, and 360 nm) were summed to generate the UV signal. Standard curves were generated by adding 4 μL of five concentrations of test compound in DMSO to 40 μL of acetonitrile in UV Star plates followed by 156 μL of the appropriate solubility medium. Analysis and statistics were performed using GraphPad® Prism v.5.04. Data were reported as the maximum concentration observed in the filtrate.

The nature of data set [2]: Stability in mouse plasma. The settings on record: for Mouse Plasma Stability t1/2: 1 μM, 37° C. Format: in vitro ADME. On the procedure: Stability in mouse plasma was tested as follows. The assay was conducted at 37° C. in triplicate. Test compound or procaine (positive control) was tested at a final concentration of 1 μM in either 2.5% DMSO/CD-1 mouse plasma (Innovative Research, Novi, MI; sodium heparin added as anticoagulant; pH adjusted to 7.4 with 2N HCl on day of use) or 2.5% DMSO/PBS (pH 7.4:136.9 mM NaCl, 2.68 mM KCl, 8.1 mM Na2HPO4, 1.47 mM KH2PO4, 0.9 mM CaCl2, 0.49 mM MgCl2). At seven time points, reaction mixture aliquots were transferred to 96-shallow well stop plates on ice containing acetonitrile with 0.1 μM propafenone. Samples were analyzed by LC/MS/MS on a Waters Xevo TQ instrument as described above using positive electrospray ionization. Assay acceptance criteria was 20% for all standards and 25% for the LLOQ. GraphPad® Prism v. 5.04 was used for nonlinear fitting of data to generate t1/2 values.

What is called IC50 is the concentration needed to halve the response being measured. A low value points to greater potency.

≈ marks a conversion by molar mass, not a printed value. Like-named read-outs stand apart in the source and are kept apart here.

On to `CC1=N/C(=C\c2ccc(C)o2)C(=O)N1c1ccc(CC(=O)NCc2ccccc2)cc1` [Compound (Id), 2-Methyl-4-(5-methyl-2-furyl)methylene-1-[4-(benzylaminocarbonylmethyl)phenyl]-5-oxo-1H-imidazole], for which the IC50 in the data set on DLD1 (Homo sapiens, DLD-1) was determined as 1350 nM; in the data set on HT29 (48 h) it was 1340 nM; in the data set with HT29 (Homo sapiens, HT-29, 48 h), 1340 nM; with Kasumi-1 (Homo sapiens, Kasumi 1), 221 nM. Moreover, the solubility kinetic at 90 min in data set [1] turned out to be 79.8 µM (≈ 33 µg/mL); in data set [1] (phosphate buffer with 2% DMSO, aqueous buffer, kinetic from dmso stock), 79.8 µM (≈ 33 µg/mL). Further, the “Mouse Plasma Stability t1/2” value in data set [2] was over 5 h. Further, in data set [2] (CD-1, mouse, plasma, pH 7.4, 37° C., read-out: Mouse Plasma Stability t1/2), the half-life at 1 μM was over 5 h.
As for `COc1ccc(/C=C2\N=C(C)N(c3ccc(CC(=O)NCc4ccccc4)cc3)C2=O)cc1` [KIM-161, reference compound], the IC50 with DLD1 was 1730 nM; with HT29 (48 h), 1840 nM; in the data set on Kasumi-1, 166 nM. Besides, the solubility kinetic at 90 min in data set [1] is 19.9 µM (≈ 8.75 µg/mL). Moreover, the “Mouse Plasma Stability t1/2” value in data set [2] is over 5 h.
